The text below walks through data of US20080081021A1, “Manganese-enhanced magnetic resonance imaging of neurons using electrical stimulation” (priority 2006, published 2008).

Assay [1] concerns rat spinal cord (gray matter, white matter, cortical spinal tract). To be noted: for *T1CST: cortical spinal tract in spinal cord; for *T1CST / T1GM / T1WM: 1 M MnCl2 0.2 μL bilateral intracortical, 9.4 T; for T1GM: gray matter of spinal cord, mean±SD, four rats; for T1WM: white matter of spinal cord. The procedure: (§1) The experiments were conducted on twelve Sprague-Dawley rats weighing between 300 and 350 g under a protocol approved by the University of Kansas Medical Center Institutional Animal Care and Use Committee. Six rats were studied without electrical stimulation in the cortex and served as the control group. The remaining six rats formed the stimulation group.
The syringe was mounted on a micropositioner attached to a stereotaxic frame. The tip of the glass pipette was lowered perpendicular to the brain surface at the center of the first burr hole and inserted into the cortex through the exposed dura one millimeter below the pial surface. The syringe was emptied slowly to deliver 0.2 μL of the solution over a period of five minutes. To prevent backflow of solution, the pipette was left in place for another five minutes prior to withdrawal. This procedure was repeated for the contralateral motor area through the second burr hole.
To eliminate this problem, the burr holes in the skull of the rat from the stimulation group were first carefully drained of fluid. Electrical stimulation was then applied through a 1 mm diameter stainless steel electrode with the titanium screw serving as reference. The electrode was connected to a DS7 Digitimer constant current stimulator (Digitimer Ltd., Hertfordshire, England) and lowered through the first burr hole on the same side as the screw until it touched to dura. A Grass S48 stimulator (Grass Medical Instruments, Quincy, Mass.) generated the stimulus pulse sequence used to externally trigger the constant current stimulator. Trains of biphasic stimuli (each phase 0.2 ms, negative first) were applied at 100 Hz for an “on” period of 5 seconds followed by an “off” period of 5 seconds. […] Once threshold was determined, stimulation was applied at approximately twice the threshold for 90 minutes. If the strength of the evoked movement declined noticeably, frequency and current values were increased to maintain a constant motor response. These procedures were repeated for the opposite cortex through a second burr hole. With these settings, the total stimulation time was 180 minutes, 90 minutes for each side of the cortex. Immediately after stimulation, the electrodes were removed, and the skin was closed tightly with suture. The animal was then left to recover in its cage.
The animals were anesthetized using spontaneous inhalation of 4% isoflurane for induction, followed by a mixture of 1.5% isoflurane, 30% oxygen, and air delivered through a nose mask. The rat's head was stabilized on a Plexigas holder and positioned into a 6 cm inner diameter volume coil for MRI scanning on a 9.4 T horizontal Varian scanner (Varian Inc., Palo Alto, Calif.). While in the scanner, the physiological condition of the rat was monitored using ECG, respiratory and temperature probes that were connected to an MR-compatible small animal monitoring and gating system (Model 1025, SA Instruments, Inc., Stony Brook, N.Y.). The rat's temperature was kept at about 37° C. by circulating warm air with 40% humidity using a 5 cm diameter plastic tube fitted to the back door of the magnet bore.
The resulting data set consisted of axial images acquired independently at eight different TR values: 50, 100, 250, 500, 750, 2000, 3500, and 6000 ms with averages=10, 6, 6, 2, 2, 2, 2 and 2, respectively, and TE=12 ms. The other acquisition parameters were image matrix=128×128, field-of-view (FOV)=23×23 mm^2 and slice thickness=4 mm. The acquired data were analyzed quantitatively to produce a parametric T1 map of the spinal cord by following the procedures described previously in Bilgen et al., Ex vivo magnetic resonance imaging of rat spinal cord at 9.4 T, Magn. Reson. Imaging 23:601-605 (2005).
T1-maps were produced for four rats from each of the stimulated and control groups.

A further assay has as its system cortical spinal tract. To be noted: 24 hours after injection. The protocol:
as §1
The syringe was mounted on a micropositioner attached to a stereotaxic frame. The tip of the glass pipette was lowered perpendicular to the brain surface at the center of the first burr hole and inserted into the cortex through the exposed dura one millimeter below the pial surface. […]
To eliminate this problem, the burr holes in the skull of the rat from the stimulation group were first carefully drained of fluid. […] Once threshold was determined, stimulation was applied at approximately twice the threshold for 90 minutes. […]
The animals were anesthetized using spontaneous inhalation of 4% isoflurane for induction, followed by a mixture of 1.5% isoflurane, 30% oxygen, and air delivered through a nose mask. […] While in the scanner, the physiological condition of the rat was monitored using ECG, respiratory and temperature probes that were connected to an MR-compatible small animal monitoring and gating system (Model 1025, SA Instruments, Inc., Stony Brook, N.Y.). […]

Setting [2] is: control rats without electrical stimulation.

Like-named read-outs stand apart in the source and are kept apart here.

For manganese chloride, in assay [1] (setting [2]), the “*T1CST” value is 1.43 ± 0.09 s, the T1GM is reported as 1.55 ± 0.05 s and the T1WM is listed as 1.53 ± 0.06 s. In addition, in assay [1] (electrically stimulated rats), the “*T1CST” value came to 1.24 ± 0.08 s, the T1GM worked out at 1.54 ± 0.06 s and the T1WM was determined as 1.51 ± 0.07 s. In addition, the “T1 in the cortical spinal tract shorter in electrically stimulated rats compared to controls” value in assay [1] (stimulated vs non-stimulated rats, both given MnCl2) was “about 20%”. Besides, the “manganese enhancement of the cortical spinal tract” value in the assay on cortical spinal tract (non-stimulated rat) was “fades away as the cortical spinal tract approaches the spinal cord”. Besides, the “labeling of the cortical spinal tract in the spinal cord” value in the assay with cortical spinal tract (with electrical stimulation of the cortex) is “more robust labeling of the cortical spinal tract in the spinal cord”.
